Assay results from patent US20250375416A1, “SERINE PROTEASE INHIBITORY EFFECTS OF HEALTH SUPPLEMENTS IN HUMAN CANCEROUS CELL LINES” (priority 2022, published 2025).

Experiments:
Trypsin = biological target: T1, Trypsin (Sus scrofa, UniProt P00761); test: Trypsin inhibition by health supplements in confluent A549 cells (cell detachment, crystal violet staining, microscopy); format: cell-based; conditions: for concentration at end point dilution of trypsin inhibition: FIG. 11, 0.125% trypsin, serial dilutions in 24 well plate; for concentration at end point of trypsin inhibitory effects: FIG. 13, cell morphology under microscope vs cell and trypsin control
T1 construct: purchased Gibco Lot no-2455123
Method: In a preferred embodiment, supplements are diluted two to five-fold dilutions (where ever necessary) in PBS (pH 7.4) either as single component and/or various combinations and tested in cell lines grown in either 6, 12, 24 and/or 48 well plates. Cell (CC) and trypsin control (TC) were kept as protease negative and positive indicators in every experiment. Trypsin-EDTA (Gibco Lot no-2455123, Canada) was added into all wells (0.125%) expect cell control wells.
(§1) Fluids from the plate was discarded and washed twice with PBS. Following wash the plate was stained with 1% crystal violet in […] at room temperature for 5 minutes. Following incubation, crystal violet from each well was discarded and washed two to three times with PBS and removed any excess dye from each well.
(§2) Health supplements were collected from pharmaceutical laboratory and were randomly screened in one of the lungs cancer cell lines called A549 for their protease inhibitory effects. Cells were cultivated in 6 well plate using standard technique until confluent. Once the plate is ready, culture media from each well were removed and washed two times with PBS. Following wash, 500 μl of supplements at appropriate dilutions were added into well followed by 500 μl of trypsin (0.25%) to each well except the well having cell control (CC). Plate was incubated at 37° C. and checked at every 5 minutes to see the effect of trypsin on cell morphology. Once cells in trypsin control well lift off from the surface, discard fluid from all wells, wash two times with PBS and stained cells by 1% crystal violet (in alcohol) for two-three minutes. Following staining wells were washed 2-3 times with PBS in order to remove excess dye and finally checked the cell morphology using inverted microscope as well as by naked eye (FIG. 7, 8).
A further experiment was conducted using serine proteases (Trypsin and Elastase) against two formulations of health supplements such as Vitamin C and combination Vitamins C (PC Drug Center Ltd, Bangkok, Thailand) with Thiamine (B1-Roche, lot no: 8077395)) and Pyridoxine (B6, Roche, lot no: 8079496). This formulation of three vitamins is designed as tbc and experiment was conducted in six well plate with confluent A549 cells using technique described in [0044].
The end point of trypsin inhibition of each supplement was calculated in terms of μg/ml. The cell morphologies were also observed by under inverted microscope (4×10) and are shown FIG. 12-15.

Elastase = biological target: T2, Elastase (Sus scrofa, UniProt P00772); test: Elastase inhibition by health supplements in confluent A549 cells (cell detachment, crystal violet staining, microscopy); format: cell-based
T2 construct: purchased SIGMA E017-5 mg
Method: as §1
In a solution of the preferred inhibitor of the present invention in which the inhibitor and trypsin are present in a concentration greater 0.355 mM verses 0.524 mM such inhibitor would react >95% of an equivalent molecular amount of trypsin.
as §2, with “Following staining wells were washed 2-3 times with PBS in order to remove excess dye and finally checked the cell morphology using inverted microscope as well as by naked eye (FIG. 7, 8).” left out

[1] = FIG. 12, trypsin at 1.25% concentration, microscopy

T1 sequence (P00761 9-231): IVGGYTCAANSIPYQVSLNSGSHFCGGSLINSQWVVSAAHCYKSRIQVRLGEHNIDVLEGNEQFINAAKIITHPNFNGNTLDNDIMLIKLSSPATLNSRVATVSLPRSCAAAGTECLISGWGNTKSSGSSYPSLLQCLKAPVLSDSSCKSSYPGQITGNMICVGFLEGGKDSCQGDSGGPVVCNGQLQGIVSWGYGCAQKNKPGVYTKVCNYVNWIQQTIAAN
T2 sequence (P00772 27-266): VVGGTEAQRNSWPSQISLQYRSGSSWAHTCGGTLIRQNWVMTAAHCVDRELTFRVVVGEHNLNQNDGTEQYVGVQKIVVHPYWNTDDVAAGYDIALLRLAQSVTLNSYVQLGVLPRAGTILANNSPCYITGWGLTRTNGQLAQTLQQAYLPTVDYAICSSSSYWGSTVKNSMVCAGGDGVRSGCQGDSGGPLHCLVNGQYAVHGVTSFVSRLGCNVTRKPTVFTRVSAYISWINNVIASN

## O=C1O[C@H]([C@@H](O)CO)C(O)=C1O [AC-1, Ascorbic acid]
Trypsin
  concentration at end point dilution of trypsin inhibition: 0.25%
Trypsin; [1]
  concentration efficiently neutralizing catalytic activities of trypsin: 0.25%
  concentration from which capability of neutralization of trypsin starts to be lost: 0.125%

## Cc1ncc(C[n+]2csc(CCO)c2C)c(N)n1 [B1, Thiamine]
Trypsin
  concentration at end point dilution of trypsin inhibition: 1.0%
  concentration at end point of trypsin inhibitory effects: 1.0%

## Cc1ncc(CO)c(CO)c1O [B6, Pyridoxine]
Trypsin
  concentration at end point dilution of trypsin inhibition: 0.5%
  concentration at end point of trypsin inhibitory effects: 0.5%

## O=C1O[C@H]([C@@H](O)CO)C(O)=C1O [vitamin C, Ascorbic acid]
Elastase; FIG. 7, A549 cells, compared with cell control (CC) and elastase control (EC)
  inhibition of enzymatic activities of Elastase (E): showed inhibitions of enzymatic activities
Elastase; FIG. 9, A549, six well plate, 0.5% elastase, Ascorbic acid 2.5% alone or tbc (Ascorbic acid 2.5%, Thiamine 0.1%, Pyridoxine 0.15%)
  level of inhibition against elastase: good level of inhibition
Trypsin; FIG. 7, A549 cells, compared with cell control (CC) and trypsin control (TC)
  inhibition of enzymatic activities of Trypsin (T): showed inhibitions of enzymatic activities
Trypsin; FIG. 9, A549, six well plate, 1.25% trypsin, Ascorbic acid 2.5% alone or tbc (Ascorbic acid 2.5%, Thiamine 0.1%, Pyridoxine 0.15%)
  level of inhibition against trypsin: good level of inhibition
